# How the values were obtained:
# [1] = ThT assay for the assessment of physical stability (fibrillation); type: physicochemical; conditions: ThT buffer system A: 100 mM phosphate buffer pH 7.4; 3 mg/ml, 37° C., shaking
# Description: Low physical stability of a peptide solution may lead to amyloid fibril formation, which is observed as well-ordered, thread-like macromolecular structures in the sample, which eventually may lead to gel formation. Thioflavin T (ThT) is widely used to visualize and quantify the presence of misfolded protein aggregates [Biancalana et al., Biochim. Biophys. Acta 2010, 1804(7), 1405]. […] Enzymol. 1999, 309, 274]. The time course for fibril formation often follows the characteristic shape of a sigmoidal curve and can be separated into three regions: a lag phase, a fast growth phase, and a plateau phase. The typical fibril formation process starts with the lag phase in which the amount of partially folded peptide turned into fibrils is not significant enough to be detected. The lag-time corresponds to the time the critical mass of the nucleus is built. Afterwards, a drastic elongation phase follows, and fibril concentration increases rapidly. Investigations were carried out to determine fibrillation tendencies under stress conditions by shaking at 37° C. within Fluoroskan Ascent FL or Fluoroskan Ascent. For the tests in Fluoroskan Ascent (FL), 200 μl sample were placed into a 96-well mictrotiter plate PS, flat bottom, Greiner Fluotrac No. 655076. Plates were sealed with Scotch Tape (Qiagen). Samples were stressed by continuous cycles of 10 sec shaking at 960 rpm and 50 sec rest period at 37° C. The kinetic was monitored by measuring fluorescence intensity every 20 min. Peptides were diluted in a buffer system to a final concentration of 3 mg/ml. 20 μl of a 10.1 mM ThT solution in H2O were added to 2 ml of peptide solution to receive a final concentration of 100 μM ThT. For each sample eight replicates were tested. • ThT buffer system A) 100 mM phosphate buffer pH 7.4 • ThT buffer system B) 100 mM phosphate buffer pH 7.4, 2.7 mg/ml m-cresol Lag time in hours (h) in Thioflavin T (ThT) assay of peptide samples was determined in ThT buffer system A as described in Methods.
# human GIP receptor = biological target: T1, human GIP receptor (Homo sapiens, UniProt P48546); assay: In vitro cellular cAMP assay for GIP receptor efficacy (human adipocytes); type: cell-based; conditions: for EC50: read-out: hGIPR EC50; for Emax: read-out: hGIPR Emax
# T1 construct: human adipocytes endogenously expressing the human GIP receptor; host or cells: human preadipocytes (Lonza) differentiated to adipocytes
# T1 sequence (P48546 22-466): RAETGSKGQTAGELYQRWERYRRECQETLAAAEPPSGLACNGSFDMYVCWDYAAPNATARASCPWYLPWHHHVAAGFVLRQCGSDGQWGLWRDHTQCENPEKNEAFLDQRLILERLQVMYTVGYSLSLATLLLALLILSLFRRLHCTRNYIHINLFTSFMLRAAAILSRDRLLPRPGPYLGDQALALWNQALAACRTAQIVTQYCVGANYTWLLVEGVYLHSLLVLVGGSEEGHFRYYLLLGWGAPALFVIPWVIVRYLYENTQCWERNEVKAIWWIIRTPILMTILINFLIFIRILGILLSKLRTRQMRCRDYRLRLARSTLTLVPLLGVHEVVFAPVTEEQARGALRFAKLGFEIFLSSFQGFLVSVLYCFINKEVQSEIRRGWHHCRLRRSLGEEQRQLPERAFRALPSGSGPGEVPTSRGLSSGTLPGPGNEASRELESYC
# How it was run: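 cAMP is read by HTRF (665/620 nm ratio, 1 h after reagents in lysis buffer) following 30 min compound exposure at room temperature. Cells are human preadipocyte-derived adipocytes, differentiated 6 days with insulin, dexamethasone, IBMX (200 μM), PPARγ agonist and L-thyroxine, seeded 5000 per well.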
# [2] = biological target: human GLP-1 receptor (hGLP-1R) (Homo sapiens, UniProt P43220); assay: Binding assay, displacement of [125I]GLP-1 from HEK-293 membranes over-expressing GLP-1R (SPA); conditions: [125I]GLP-1 displacement
# human GLP-1 receptor (hGLP-1R), sequence (P43220 24-463): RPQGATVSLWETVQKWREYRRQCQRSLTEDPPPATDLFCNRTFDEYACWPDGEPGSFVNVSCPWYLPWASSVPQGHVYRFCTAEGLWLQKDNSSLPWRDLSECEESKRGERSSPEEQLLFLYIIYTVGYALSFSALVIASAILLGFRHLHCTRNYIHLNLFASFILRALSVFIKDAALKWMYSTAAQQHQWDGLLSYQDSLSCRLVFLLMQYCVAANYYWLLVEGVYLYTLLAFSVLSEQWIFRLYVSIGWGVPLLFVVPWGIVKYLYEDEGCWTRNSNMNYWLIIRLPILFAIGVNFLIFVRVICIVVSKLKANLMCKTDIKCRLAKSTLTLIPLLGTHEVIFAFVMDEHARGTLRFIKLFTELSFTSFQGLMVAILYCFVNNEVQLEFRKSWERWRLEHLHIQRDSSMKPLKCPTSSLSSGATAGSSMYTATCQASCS
# Description: (1) Preparation of Membranes from HEK-293 Cells Over-Expressing GIPR or GLP-1R
# HEK-293 cells recombinantly over-expressing GIPR or GLP-1R were grown to 50% confluency, washed with warm 1×PBS (Gibco) and detached in HEPES/EDTA-buffer (100 mM HEPES pH 7.5, 5 mM EDTA). Cells were harvested by centrifugation at 4° C. and 3000×g and the pellets were stored at −80° C. until further processing.
# After thawing on ice, pellets were resuspended in HEPES/EDTA-buffer and homogenized on ice for 1 min using Ultra-Turray T25. After subsequent sonification the cell debris was removed by centrifugation at 1000×g and 4° C. Supernatants were then ultra-centrifuged at 100000×g and 4° C. under vacuum for 30 min. Pellets were resuspended in HEPES/EDTA/NaCl-buffer (20 mM HEPES, 1 mM EDTA, 150 mM NaCl; add 1 Complete Mini Protease inhibitor cocktail to 10 ml buffer) and protein content was determined via BCA-Protein assay.
# (2) Measurement of Binding Activity of Test Compounds to Human GIPR or GLP-1R
Compound,Increase in FI [1],Lag time before increase [1] [h],EC50 (human GIP receptor) [nM],Emax (human GIP receptor) [%],IC50 [2] [nM]
"CC[C@H](C)[C@H](NC(=O)[C@H](Cc1ccccc1)NC(=O)[C@H](CCC(=O)O)NC(=O)[C@H](CCC(=O)O)NC(=O)[C@H](CCC(N)=O)NC(=O)[C@H](Cc1c[nH]cn1)NC(=O)[C@@H](NC(=O)[C@H](CCCNC(=N)N)NC(=O)[C@H](CC(=O)O)NC(=O)[C@H](CCCCNC(=O)COCCOCCNC(=O)COCCOCCNC(=O)CC[C@H](NC(=O)CCCCCCCCCCCCCCCCC(=O)O)C(=O)O)NC(=O)C(C)(C)NC(=O)[C@@H](NC(=O)[C@H](CO)NC(=O)[C@H](CC(C)C)NC(=O)[C@H](CC(=O)O)NC(=O)[C@H](CO)NC(=O)[C@@H](NC(=O)[C@H](Cc1ccccc1)NC(=O)[C@@H](NC(=O)CNC(=O)[C@H](CCC(=O)O)NC(=O)C(C)(C)NC(=O)[C@@H](N)Cc1ccc(O)cc1)[C@@H](C)O)[C@@H](C)CC)[C@@H](C)CC)[C@@H](C)CC)C(=O)N[C@@H](CCC(=O)O)C(=O)N[C@@H](Cc1c[nH]c2ccccc12)C(=O)N[C@@H](CC(C)C)C(=O)N[C@@H](CC(C)C)C(=O)N[C@@H](C)C(=O)N[C@@H](CCC(N)=O)C(=O)N[C@@H](CCCNC(=N)N)C(=O)NCC(N)=O [SEQ ID NO: 4, H2N-Y-Aib-E-G-T-F-I-S-D-L-S-I-Aib-K[{AEEA}2-gGlu-C18OH]-D-R-I-H-Q-E-E-F-I-E-W-L-L-A-Q-R-G-NH2]",no,>45,2.4,134,308
"CC[C@H](C)[C@H](NC(=O)[C@H](CCCNC(=N)N)NC(=O)[C@H](CC(=O)O)NC(=O)[C@H](CCCCNC(=O)COCCOCCNC(=O)COCCOCCNC(=O)CC[C@H](NC(=O)CCCCCCCCCCCCCCCCC(=O)O)C(=O)O)NC(=O)C(C)(C)NC(=O)[C@@H](NC(=O)[C@H](CO)NC(=O)[C@H](CC(C)C)NC(=O)[C@H](CC(=O)O)NC(=O)[C@H](CO)NC(=O)[C@@H](NC(=O)[C@H](Cc1ccccc1)NC(=O)[C@@H](NC(=O)CNC(=O)[C@H](CCC(=O)O)NC(=O)C(C)(C)NC(=O)[C@@H](N)Cc1ccc(O)cc1)[C@@H](C)O)[C@@H](C)CC)[C@@H](C)CC)C(=O)N[C@@H](Cc1c[nH]cn1)C(=O)N[C@@H](CCC(N)=O)C(=O)NC(C)(C)C(=O)N[C@@H](CCC(=O)O)C(=O)N[C@@H](Cc1ccccc1)C(=O)N[C@H](C(=O)N[C@@H](CCC(=O)O)C(=O)N[C@@H](Cc1c[nH]c2ccccc12)C(=O)N[C@@H](CC(C)C)C(=O)N[C@@H](CC(C)C)C(=O)N[C@@H](C)C(=O)N[C@@H](CCC(N)=O)C(=O)N[C@@H](CCCNC(=N)N)C(=O)NCC(N)=O)[C@@H](C)CC [SEQ ID NO: 6, H2N-Y-Aib-E-G-T-F-I-S-D-L-S-I-Aib-K[{AEEA}2-gGlu-C18OH]-D-R-I-H-Q-Aib-E-F-I-E-W-L-L-A-Q-R-G-NH2]",no,>45,1,121,156
"CC[C@H](C)[C@H](NC(=O)[C@H](CCCNC(=N)N)NC(=O)[C@H](CC(=O)O)NC(=O)[C@H](CCCCNC(=O)COCCOCCNC(=O)COCCOCCNC(=O)CC[C@H](NC(=O)CCCCCCCCCCCCCCCCC(=O)O)C(=O)O)NC(=O)C(C)(C)NC(=O)[C@@H](NC(=O)[C@H](CO)NC(=O)[C@H](CC(C)C)NC(=O)[C@H](CC(=O)O)NC(=O)[C@H](CO)NC(=O)[C@@H](NC(=O)[C@H](Cc1ccccc1)NC(=O)[C@@H](NC(=O)CNC(=O)[C@H](CCC(=O)O)NC(=O)C(C)(C)NC(=O)[C@@H](N)Cc1ccc(O)cc1)[C@@H](C)O)[C@@H](C)CC)[C@@H](C)CC)C(=O)N[C@@H](Cc1c[nH]cn1)C(=O)N[C@@H](CCC(N)=O)C(=O)NC(C)(C)C(=O)N[C@@H](CCC(=O)O)C(=O)N[C@@H](Cc1ccccc1)C(=O)N[C@H](C(=O)N[C@@H](CCC(=O)O)C(=O)N[C@@H](Cc1c[nH]c2ccccc12)C(=O)N[C@@H](CC(C)C)C(=O)N[C@@H](CC(C)C)C(=O)N[C@@H](C)C(=O)N[C@@H](CCC(N)=O)C(=O)N[C@@H](CCC(=O)O)C(=O)NCC(N)=O)[C@@H](C)CC [SEQ ID NO: 12, H2N-Y-Aib-E-G-T-F-I-S-D-L-S-I-Aib-K[{AEEA}2-gGlu-C18OH]-D-R-I-H-Q-Aib-E-F-I-E-W-L-L-A-Q-E-G-NH2]",no,>45,0.5,112,133

# Second part, the molecule after the results:
Increase in FI [1],Lag time before increase [1] [h],EC50 (human GIP receptor) [nM],Emax (human GIP receptor) [%],IC50 [2] [nM],Compound
no,>45,0.8,109,495,"CC[C@H](C)[C@H](NC(=O)[C@H](Cc1ccccc1)NC(=O)[C@H](CCC(=O)O)NC(=O)[C@H](CCC(=O)O)NC(=O)[C@H](CCC(N)=O)NC(=O)[C@H](Cc1c[nH]cn1)NC(=O)[C@@H](NC(=O)[C@H](CCCNC(=N)N)NC(=O)[C@H](CC(=O)O)NC(=O)[C@H](CCCCNC(=O)COCCOCCNC(=O)COCCOCCNC(=O)CC[C@H](NC(=O)CCCCCCCCCCCCCCCCC(=O)O)C(=O)O)NC(=O)C(C)(C)NC(=O)[C@@H](NC(=O)[C@H](CO)NC(=O)[C@H](CC(C)C)NC(=O)[C@H](CC(=O)O)NC(=O)[C@H](CO)NC(=O)[C@@H](NC(=O)[C@@](C)(CC)NC(=O)[C@@H](NC(=O)CNC(=O)[C@H](CCC(=O)O)NC(=O)C(C)(C)NC(=O)[C@@H](N)Cc1ccc(O)cc1)[C@@H](C)O)[C@@H](C)CC)[C@@H](C)CC)[C@@H](C)CC)C(=O)N[C@@H](CCC(=O)O)C(=O)N[C@@H](Cc1c[nH]c2ccccc12)C(=O)N[C@@H](CC(C)C)C(=O)N[C@@H](CC(C)C)C(=O)N[C@@H](C)C(=O)N[C@@H](CCC(N)=O)C(=O)N[C@@H](CCCNC(=N)N)C(=O)NCC(N)=O [SEQ ID NO: 15, H2N-Y-Aib-E-G-T-Iva-I-S-D-L-S-I-Aib-K[{AEEA}2-gGlu-C18OH]-D-R-I-H-Q-E-E-F-I-E-W-L-L-A-Q-R-G-NH2]"
no,>45,0.6,91,174,"CC[C@H](C)[C@H](NC(=O)[C@H](CCCNC(=N)N)NC(=O)[C@H](CC(=O)O)NC(=O)[C@H](CCCCNC(=O)COCCOCCNC(=O)COCCOCCNC(=O)CC[C@H](NC(=O)CCCCCCCCCCCCCCCCC(=O)O)C(=O)O)NC(=O)C(C)(C)NC(=O)[C@@H](NC(=O)[C@H](CO)NC(=O)[C@H](CC(C)C)NC(=O)[C@H](CC(=O)O)NC(=O)[C@H](CO)NC(=O)[C@@H](NC(=O)[C@@](C)(CC)NC(=O)[C@@H](NC(=O)CNC(=O)[C@H](CCC(=O)O)NC(=O)C(C)(C)NC(=O)[C@@H](N)Cc1ccc(O)cc1)[C@@H](C)O)[C@@H](C)CC)[C@@H](C)CC)C(=O)N[C@@H](Cc1c[nH]cn1)C(=O)N[C@@H](CCC(N)=O)C(=O)NC(C)(C)C(=O)N[C@@H](CCC(=O)O)C(=O)N[C@@H](Cc1ccccc1)C(=O)N[C@H](C(=O)N[C@@H](CCC(=O)O)C(=O)N[C@@H](Cc1c[nH]c2ccccc12)C(=O)N[C@@H](CC(C)C)C(=O)N[C@@H](CC(C)C)C(=O)N[C@@H](C)C(=O)N[C@@H](CCC(N)=O)C(=O)N[C@@H](CCCNC(=N)N)C(=O)NCC(N)=O)[C@@H](C)CC [SEQ ID NO: 16, H2N-Y-Aib-E-G-T-Iva-I-S-D-L-S-I-Aib-K[{AEEA}2-gGlu-C18OH]-D-R-I-H-Q-Aib-E-F-I-E-W-L-L-A-Q-R-G-NH2]"
